Test results reported in ChEMBL document CHEMBL5724914, “Linking interpersonal differences in gut microbiota composition and drug biotransformation activity” (2024).

Test: (§1) The drug is tested on Z-030 corresponding to mouse gut metagenome with ENA study accession number: PRJEB37062 and ENA sample accession number: ERS12561829 for biotransformation under anaerobic condition. The drug concentrations were measured over 9 timepoints collected between 0 and 24 hours of incubation by liquid-chromatography-coupled mass spectrometry (LC–MS)
Settings: 2 µM
Also: call rule not given here.

Compound	Bacterial Biotransformation
CN/C(=N/CCSCc1nc[nH]c1C)NC#N [CIMETIDINE]	Compound NOT metabolized
CCN(CC)CCOCCOC(=O)C1(c2ccccc2)CCCC1.O=C(O)CC(O)(CC(=O)O)C(=O)O [CARBETAPENTANE CITRATE]	Compound NOT metabolized

Test: as §1, with “Z-028” for “Z-030”, “ERS12561827” for “ERS12561829”
Settings: 2 µM

Compound	Bacterial Biotransformation
CN/C(=N/CCSCc1nc[nH]c1C)NC#N [CIMETIDINE]	Compound NOT metabolized
CCN(CC)CCOCCOC(=O)C1(c2ccccc2)CCCC1.O=C(O)CC(O)(CC(=O)O)C(=O)O [CARBETAPENTANE CITRATE]	Compound NOT metabolized

Test: as §1, with “Z-027” for “Z-030”, “to” for “to mouse gut”, “ERS12561826” for “ERS12561829”
Settings: 2 µM

Compound	Bacterial Biotransformation
CN/C(=N/CCSCc1nc[nH]c1C)NC#N [CIMETIDINE]	Compound NOT metabolized
CCN(CC)CCOCCOC(=O)C1(c2ccccc2)CCCC1.O=C(O)CC(O)(CC(=O)O)C(=O)O [CARBETAPENTANE CITRATE]	Compound NOT metabolized

Test: as §1, with “Z-026” for “Z-030”, “to” for “to mouse gut”, “ERS12561825” for “ERS12561829”
Settings: 2 µM

Compound	Bacterial Biotransformation
CN/C(=N/CCSCc1nc[nH]c1C)NC#N [CIMETIDINE]	Compound NOT metabolized
CCN(CC)CCOCCOC(=O)C1(c2ccccc2)CCCC1.O=C(O)CC(O)(CC(=O)O)C(=O)O [CARBETAPENTANE CITRATE]	Compound NOT metabolized

Test: as §1, with “Z-024” for “Z-030”, “pig” for “mouse”, “ERS12561823” for “ERS12561829”
Settings: 2 µM

Compound	Bacterial Biotransformation
CN/C(=N/CCSCc1nc[nH]c1C)NC#N [CIMETIDINE]	Compound NOT metabolized
CCN(CC)CCOCCOC(=O)C1(c2ccccc2)CCCC1.O=C(O)CC(O)(CC(=O)O)C(=O)O [CARBETAPENTANE CITRATE]	Compound metabolized

Test: as §1, with “Z-020” for “Z-030”, “rabbit” for “mouse”, “ERS12561819” for “ERS12561829”
Settings: 2 µM

Compound	Bacterial Biotransformation
CN/C(=N/CCSCc1nc[nH]c1C)NC#N [CIMETIDINE]	Compound NOT metabolized
CCN(CC)CCOCCOC(=O)C1(c2ccccc2)CCCC1.O=C(O)CC(O)(CC(=O)O)C(=O)O [CARBETAPENTANE CITRATE]	Compound metabolized

Test: as §1, with “Z-010” for “Z-030”, “to” for “to mouse gut”, “ERS12561810” for “ERS12561829”
Settings: 2 µM

Compound	Bacterial Biotransformation
CN/C(=N/CCSCc1nc[nH]c1C)NC#N [CIMETIDINE]	Compound metabolized
CCN(CC)CCOCCOC(=O)C1(c2ccccc2)CCCC1.O=C(O)CC(O)(CC(=O)O)C(=O)O [CARBETAPENTANE CITRATE]	Compound metabolized

Test: as §1, with “Z-004” for “Z-030”, “to” for “to mouse gut”, “ERS12561804” for “ERS12561829”
Settings: 2 µM

Compound	Bacterial Biotransformation
CN/C(=N/CCSCc1nc[nH]c1C)NC#N [CIMETIDINE]	Compound NOT metabolized
CCN(CC)CCOCCOC(=O)C1(c2ccccc2)CCCC1.O=C(O)CC(O)(CC(=O)O)C(=O)O [CARBETAPENTANE CITRATE]	Compound metabolized

Test: as §1, with “Z-002” for “Z-030”, “rabbit” for “mouse”, “ERS12561802” for “ERS12561829”
Settings: 2 µM

Compound	Bacterial Biotransformation
CN/C(=N/CCSCc1nc[nH]c1C)NC#N [CIMETIDINE]	Compound NOT metabolized
CCN(CC)CCOCCOC(=O)C1(c2ccccc2)CCCC1.O=C(O)CC(O)(CC(=O)O)C(=O)O [CARBETAPENTANE CITRATE]	Compound metabolized

Test: as §1, with “Z-001” for “Z-030”, “ERS12561801” for “ERS12561829”
Settings: 2 µM

Compound	Bacterial Biotransformation
CN/C(=N/CCSCc1nc[nH]c1C)NC#N [CIMETIDINE]	Compound NOT metabolized
CCN(CC)CCOCCOC(=O)C1(c2ccccc2)CCCC1.O=C(O)CC(O)(CC(=O)O)C(=O)O [CARBETAPENTANE CITRATE]	Compound NOT metabolized

Test: as §1, with “WLS-370” for “Z-030”, “human” for “mouse”, “ERS12561793” for “ERS12561829”
Settings: 2 µM

Compound	Bacterial Biotransformation
CN/C(=N/CCSCc1nc[nH]c1C)NC#N [CIMETIDINE]	Compound NOT metabolized
CCN(CC)CCOCCOC(=O)C1(c2ccccc2)CCCC1.O=C(O)CC(O)(CC(=O)O)C(=O)O [CARBETAPENTANE CITRATE]	Compound metabolized

Test: as §1, with “WLS-170” for “Z-030”, “human” for “mouse”, “ERS12561762” for “ERS12561829”
Settings: 2 µM

Compound	Bacterial Biotransformation
CN/C(=N/CCSCc1nc[nH]c1C)NC#N [CIMETIDINE]	Compound metabolized
CCN(CC)CCOCCOC(=O)C1(c2ccccc2)CCCC1.O=C(O)CC(O)(CC(=O)O)C(=O)O [CARBETAPENTANE CITRATE]	Compound metabolized

Test: as §1, with “WLS-090” for “Z-030”, “human” for “mouse”, “ERS12561753” for “ERS12561829”
Settings: 2 µM

Compound	Bacterial Biotransformation
CN/C(=N/CCSCc1nc[nH]c1C)NC#N [CIMETIDINE]	Compound metabolized
CCN(CC)CCOCCOC(=O)C1(c2ccccc2)CCCC1.O=C(O)CC(O)(CC(=O)O)C(=O)O [CARBETAPENTANE CITRATE]	Compound metabolized

Settings: human gut metagenome, 24 h, 2 µM

Compound	Bacterial Biotransformation
CN/C(=N/CCSCc1nc[nH]c1C)NC#N [CIMETIDINE]	Compound metabolized
CCN(CC)CCOCCOC(=O)C1(c2ccccc2)CCCC1.O=C(O)CC(O)(CC(=O)O)C(=O)O [CARBETAPENTANE CITRATE]	Compound metabolized

Settings: human gut metagenome, 24 h, 2 µM
Remark: another data set of the same source

Compound	Bacterial Biotransformation
CN/C(=N/CCSCc1nc[nH]c1C)NC#N [CIMETIDINE]	Compound metabolized
CCN(CC)CCOCCOC(=O)C1(c2ccccc2)CCCC1.O=C(O)CC(O)(CC(=O)O)C(=O)O [CARBETAPENTANE CITRATE]	Compound metabolized

Settings: human gut metagenome, 24 h, 2 µM
Remark: another data set of the same source

Compound	Bacterial Biotransformation
CN/C(=N/CCSCc1nc[nH]c1C)NC#N [CIMETIDINE]	Compound NOT metabolized
CCN(CC)CCOCCOC(=O)C1(c2ccccc2)CCCC1.O=C(O)CC(O)(CC(=O)O)C(=O)O [CARBETAPENTANE CITRATE]	Compound metabolized

Settings: human gut metagenome, 24 h, 2 µM
Remark: another data set of the same source

Compound	Bacterial Biotransformation
CN/C(=N/CCSCc1nc[nH]c1C)NC#N [CIMETIDINE]	Compound metabolized
CCN(CC)CCOCCOC(=O)C1(c2ccccc2)CCCC1.O=C(O)CC(O)(CC(=O)O)C(=O)O [CARBETAPENTANE CITRATE]	Compound metabolized

Settings: human gut metagenome, 24 h, 2 µM
Remark: another data set of the same source

Compound	Bacterial Biotransformation
CN/C(=N/CCSCc1nc[nH]c1C)NC#N [CIMETIDINE]	Compound metabolized
CCN(CC)CCOCCOC(=O)C1(c2ccccc2)CCCC1.O=C(O)CC(O)(CC(=O)O)C(=O)O [CARBETAPENTANE CITRATE]	Compound metabolized

Settings: human gut metagenome, 24 h, 2 µM
Remark: another data set of the same source

Compound	Bacterial Biotransformation
CN/C(=N/CCSCc1nc[nH]c1C)NC#N [CIMETIDINE]	Compound metabolized
CCN(CC)CCOCCOC(=O)C1(c2ccccc2)CCCC1.O=C(O)CC(O)(CC(=O)O)C(=O)O [CARBETAPENTANE CITRATE]	Compound metabolized

Settings: human gut metagenome, 24 h, 2 µM
Remark: another data set of the same source

Compound	Bacterial Biotransformation
CN/C(=N/CCSCc1nc[nH]c1C)NC#N [CIMETIDINE]	Compound metabolized
CCN(CC)CCOCCOC(=O)C1(c2ccccc2)CCCC1.O=C(O)CC(O)(CC(=O)O)C(=O)O [CARBETAPENTANE CITRATE]	Compound metabolized
